In general, IC50 refers to the concentration needed to halve the response being measured. Read a high IC50 as weaker potency.

The values that follow come from patent publication US20260062412A1, “NITROGEN-CONTAINING HETEROCYCLIC COMPOUND HAVING MYT1 INHIBITORY ACTIVITY” (CHUGAI SEIYAKU KABUSHIKI KAISHA, priority 2023, published 2026).

For one assay, the target named is MYT1 protein (Homo sapiens (Human), UniProt Q99640). Kind of assay: Test for binding to ATP binding site of MYT1 (Kinase Tracer 178 / Eu-Anti-GST antibody TR-FRET). Particulars: ATP binding site of MYT1, 30 minutes at room temperature. In general terms: In TR-FRET formats the signal depends on donor and acceptor labels being close together.
Chain of MYT1 protein (Q99640 whole entry, the tested form may be a part): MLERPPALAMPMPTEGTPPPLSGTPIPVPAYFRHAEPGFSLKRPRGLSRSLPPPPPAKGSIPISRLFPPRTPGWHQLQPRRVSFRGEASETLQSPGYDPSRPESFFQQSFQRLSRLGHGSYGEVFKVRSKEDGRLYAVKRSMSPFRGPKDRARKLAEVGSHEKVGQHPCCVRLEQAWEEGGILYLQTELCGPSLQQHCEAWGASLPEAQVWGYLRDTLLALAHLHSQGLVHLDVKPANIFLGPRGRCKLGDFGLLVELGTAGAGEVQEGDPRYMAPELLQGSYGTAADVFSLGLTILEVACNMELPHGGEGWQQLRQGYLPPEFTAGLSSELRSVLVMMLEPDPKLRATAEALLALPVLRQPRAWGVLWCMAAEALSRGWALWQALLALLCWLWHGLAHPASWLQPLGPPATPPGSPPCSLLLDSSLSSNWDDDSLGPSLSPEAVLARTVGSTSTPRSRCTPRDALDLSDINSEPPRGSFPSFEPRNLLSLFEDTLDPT
Another assay has as its system LU65. Kind of assay: Cytotoxicity test with pemetrexed upon addition of each example compound (CellTiter-Glo). The format is cell-based, human. Particulars: combination with pemetrexed, LU65 cells, 7 days; maximum value, at the MYT1 inhibitor and pemetrexed concentrations. Here is the method: LU65 (received from human tissue bank (JCRB Cell Bank)) was used in the evaluation of the present invention. LU65 is a lung cancer cell line having a truncated deletion mutation of S82* in RB1 gene (see Nature. 2019 May; 569(7757): 503-508. (Non Patent Literature 22)), in which the function of RB1 is decreased. The cell culture was carried out using RPMI-1640 (manufactured by SIGMA) containing 10% FBS (manufactured by SIGMA).
Each pemetrexed (manufactured by Tokyo Kasei Kogyo Co., Ltd.) and each example compound of each concentration were diluted using a DMSO solution, and 0.04 μL of each of series of dilution and DMSO was added to each well of cell culture plate using Echo 555 Liquid Handler (manufactured by Beckman Coulter Inc.). 1000 LU65 cells ([…]) were added to each well, which was cultured at 37° C. in a 5% CO2 incubator for 7 days. Intracellular ATP level which is a cell survival marker was measured and used in the monitoring of cell number. After culturing, 20 μL of CellTiter-Glo (registered trademark) 2.0 (manufactured by Promega) was added to each well, and the emission intensity was measured using Multimode Plate Reader En Vision (registered trademark) Xcite (manufactured by PerkinElmer). The cell survival rate under each condition was calculated by setting the value obtained by subtracting the luminescence of the cell unseeded well from the luminescence of the DMSO-added well as 100%, and calculating the proportion of a value obtained by subtracting the luminescence of the cell unseeded well from the luminescence detected at each well.
In addition, the cytotoxic activity under each condition was calculated by subtracting the survival rate in a combination of pemetrexed of each treatment concentration and each example compound of each treatment concentration, from 100%.

Molecule `COc1cc2c(-c3ccc(F)c4[nH]ncc34)c(N)c(=O)[nH]c2c2cc(F)cnc12` [Compound F2, 3-Amino-9-fluoro-4-(7-fluoro-1H-indazol-4-yl)-6-methoxy-1H-1,7-phenanthrolin-2-one] gave an IC50 at MYT1 protein of 1.6 nM. For the same molecule, in the assay on LU65, the “Bliss Score (Max)” value worked out at 86% and the “HSA Score (MAX)” value stood at 83%. For `Cn1cnc2c3[nH]c(=O)c(N)c(-c4ccc(F)c5[nH]ncc45)c3cc(C3CC3)c21` [Compound M4, 7-Amino-4-cyclopropyl-6-(7-fluoro-1H-indazol-4-yl)-3-methyl-9H-imidazo[4,5-h]quinolin-8-one] the same measures were 19 nM, 51% and 60%. For `Nc1c(-c2ccc(F)c3[nH]ncc23)c2cc(I)c3ccc(Cl)cc3c2[nH]c1=O` [Compound B9, 3-Amino-9-chloro-4-(7-fluoro-1H-indazol-4-yl)-6-iodo-1H-benzo[h]quinolin-2-one], on MYT1 protein, the half-maximal inhibitory concentration (IC50) was 120 nM. In turn, `Nc1c(-c2ccc(F)c3[nH]ncc23)c2cc(C3CC3)c3cccc(Cl)c3c2[nH]c1=O` [Compound B20, 3-Amino-10-chloro-6-cyclopropyl-4-(7-fluoro-1H-indazol-4-yl)-1H-benzo[h]quinolin-2-one] came in with a half-inhibitory concentration (IC50) at MYT1 protein of 42 nM. With `COc1ccc2c(n1)c(OC)cc1c(-c3ccc(F)c4[nH]ncc34)c(N)c(=O)[nH]c12` [Compound T1, 3-Amino-4-(7-fluoro-1H-indazol-4-yl)-6,8-dimethoxy-1H-1,7-phenanthrolin-2-one], the IC50 at MYT1 protein turned out to be 4.9 nM. Regarding `CC(C)N1CC(c2cc3c(-c4ccc(F)c5[nH]ncc45)c(N)c(=O)[nH]c3c3ncccc23)C1` [Compound D29, 3-Amino-4-(7-fluoro-1H-indazol-4-yl)-6-(1-propan-2-ylazetidin-3-yl)-1H-1,10-phenanthrolin-2-one], the IC50 at MYT1 protein amounted to 5.7 nM. This IC50 and that of the molecule before are within 1.5-fold of each other. Same read-out and setting: as for `CCCOc1cc2c(-c3ccc(F)c4[nH]ncc34)c(N)c(=O)[nH]c2c2cccnc12` [Compound C60, 3-Amino-4-(7-fluoro-1H-indazol-4-yl)-6-propoxy-1H-1,7-phenanthrolin-2-one], the figure is 0.85 nM.

On MYT1 protein, `CCOc1cc2c(-c3ccc(F)c4[nH]ncc34)c(N)c(=O)[nH]c2c2ccc(=O)[nH]c12` [Compound T6, 3-Amino-6-ethoxy-4-(7-fluoro-1H-indazol-4-yl)-1,7-dihydro-1,7-phenanthroline-2,8-dione] yielded a concentration for half-maximal inhibition (IC50) of 2.2 nM. Take `Nc1c(-c2ccc(Cl)c3[nH]ncc23)c2cc(OCCC(F)F)c(F)cc2[nH]c1=O` [Compound A2, 3-Amino-4-(7-chloro-1H-indazol-4-yl)-6-(3,3-difluoropropoxy)-7-fluoro-1H-quinolin-2-one]: the IC50 at MYT1 protein was 9.3 nM. `Nc1c(-c2ccc(F)c3[nH]ncc23)c2cc(OCCCF)c3ncccc3c2[nH]c1=O` [Compound C19, 3-Amino-4-(7-fluoro-1H-indazol-4-yl)-6-(3-fluoropropoxy)-1H-1,7-phenanthrolin-2-one] showed a concentration for half-maximal inhibition (IC50) at MYT1 protein of 2.2 nM. With `Cn1ccc(-c2c(N)c(=O)[nH]c3ccc(Cl)cc23)cc1=O` [Compound A52, 3-Amino-6-chloro-4-(1-methyl-2-oxopyridin-4-yl)-1H-quinolin-2-one], at MYT1 protein, the IC50 amounted to 4400 nM. As to `Nc1c(-c2cc(F)c(F)c3[nH]ncc23)c2c(F)c(C3CC3)c3ncccc3c2[nH]c1=O` [Compound C220, 3-Amino-6-cyclopropyl-4-(6,7-difluoro-1H-indazol-4-yl)-5-fluoro-1H-1,7-phenanthrolin-2-one], the IC50 at MYT1 protein was determined as 4.1 nM.

As to `Nc1c(-c2ccc(Cl)c3[nH]ncc23)c2cc(O[C@H]3C[C@H](F)C3)c(Cl)cc2[nH]c1=O` [Compound A11, 3-Amino-7-chloro-4-(7-chloro-1H-indazol-4-yl)-6-((1r,3r)-3-fluorocyclobutyl)oxy-1H-quinolin-2-one], at MYT1 protein, the IC50 was 3.9 nM.

The molecule `CS(=O)(=O)Nc1cc2c(-c3ccc(F)c4[nH]ncc34)c(N)c(=O)[nH]c2c2nccnc12` [Compound G5, N-[8-amino-7-(7-fluoro-1H-indazol-4-yl)-9-oxo-10H-pyrido[2,3-f]quinoxalin-5-yl]methanesulfonamide] registered an IC50 at MYT1 protein of 9.3 nM. Compared with the last molecule, the IC50 is about 2.4-fold higher. In the case of `CO[C@H](C)COc1cc2c(-c3ccc(F)c4[nH]ncc34)c(N)c(=O)[nH]c2c2cccnc12` [Compound C50, 3-Amino-4-(7-fluoro-1H-indazol-4-yl)-6-[(2R)-2-methoxypropoxy]-1H-1,7-phenanthrolin-2-one], on MYT1 protein, the IC50 amounted to 4 nM. Compared with the last molecule, the IC50 is about 2.3-fold lower. Take `CCc1cc2c(-c3ccc(Cl)c4[nH]ncc34)c(N)c(=O)[nH]c2c2cccnc12` [Compound C150, 3-Amino-4-(7-chloro-1H-indazol-4-yl)-6-ethyl-1H-1,7-phenanthrolin-2-one]: the IC50 on MYT1 protein is 1.9 nM. At MYT1 protein, `Cc1cc2c(-c3ccc(Cl)c4[nH]ncc34)c(N)c(=O)[nH]c2c2cccnc12` [Compound C152, 3-Amino-4-(7-chloro-1H-indazol-4-yl)-6-methyl-1H-1,7-phenanthrolin-2-one] displayed an IC50 of 4 nM. On the same count and under the same terms, as for `COc1cc2c(-c3ccc(F)c4[nH]ncc34)c(N)c(=O)[nH]c2c2ncccc12` [Compound D18, 3-Amino-4-(7-fluoro-1H-indazol-4-yl)-6-methoxy-1H-1,10-phenanthrolin-2-one], the figure is 0.25 nM. In the case of `Nc1c(-c2ccc(F)c3[nH]ncc23)c2cc(C3CCN(C4CCOCC4)CC3)c3cccnc3c2[nH]c1=O` [Compound D25, 3-Amino-4-(7-fluoro-1H-indazol-4-yl)-6-[1-(oxan-4-yl)piperidin-4-yl]-1H-1,10-phenanthrolin-2-one], the IC50 at MYT1 protein is 7.8 nM. Against the preceding molecule, the IC50 is about 31-fold higher. On the same count and under the same terms, then `Nc1c(-c2ccc(Cl)c3[nH]ncc23)c2cc(C(=O)NC3CC3)ccc2[nH]c1=O` [Compound A37, 3-Amino-4-(7-chloro-1H-indazol-4-yl)-N-cyclopropyl-2-oxo-1H-quinoline-6-carboxamide], with 5.6 nM. Consider `Nc1c(-c2ccc(Cl)c3[nH]ncc23)c2cc(C(=O)N3CCOCC3)ccc2[nH]c1=O` [Compound A38, 3-Amino-4-(7-chloro-1H-indazol-4-yl)-6-(morpholine-4-carbonyl)-1H-quinolin-2-one], for which the IC50 on MYT1 protein was 20 nM. For the molecule `Nc1c(-c2ccc(Cl)c3[nH]ncc23)c2cc(OCCCF)c(Cl)cc2[nH]c1=O` [Compound A14, 3-Amino-7-chloro-4-(7-chloro-1H-indazol-4-yl)-6-(3-fluoropropoxy)-1H-quinolin-2-one], on MYT1 protein, the half-inhibitory concentration (IC50) worked out at 2.1 nM.

`N#C[C@H]1C[C@H](Oc2cc3c(-c4ccc(F)c5[nH]ncc45)c(N)c(=O)[nH]c3c3cccnc23)C1` [Compound C31, (1r,3r)-3-[[3-Amino-4-(7-fluoro-1H-indazol-4-yl)-2-oxo-1H-1,7-phenanthrolin-6-yl]oxy]cyclobutane-1-carbonitrile]: at MYT1 protein, the half-inhibitory concentration (IC50) is 4.3 nM. Against the preceding molecule, the IC50 is about 2-fold higher.

At MYT1 protein, `CC(C)Nc1cc2c(-c3ccc(F)c4[nH]ncc34)c(N)c(=O)[nH]c2c2nccnc12` [Compound G9, 8-Amino-7-(7-fluoro-1H-indazol-4-yl)-5-(propan-2-ylamino)-10H-pyrido[2,3-f]quinoxalin-9-one] returned an IC50 of 4.4 nM. Still for that read-out and setting: as for `Nc1c(-c2ccc(F)c3[nH]ncc23)c2cc(OCC34CC(C3)C4)c3ncccc3c2[nH]c1=O` [Compound C49, 3-Amino-6-(1-bicyclo[1.1.1]pentanylmethoxy)-4-(7-fluoro-1H-indazol-4-yl)-1H-1,7-phenanthrolin-2-one], the figure is 1.7 nM; as for `Nc1c(-c2ccc(F)c3[nH]ncc23)c2cc(NS(=O)(=O)C3CC3)c3cccnc3c2[nH]c1=O` [Compound D17, N-[8-amino-7-(7-fluoro-1H-indazol-4-yl)-9-oxo-10H-1,10-phenanthrolin-5-yl]cyclopropanesulfonamide], 3.1 nM. On the same count and under the same terms, as for `CC(C)CCOc1cc2c(-c3ccc(F)c4[nH]ncc34)c(N)c(=O)[nH]c2c2cccnc12` [Compound C10, 3-Amino-4-(7-fluoro-1H-indazol-4-yl)-6-(3-methylbutoxy)-1H-1,7-phenanthrolin-2-one], the figure is 2.3 nM; as for `Nc1c(-c2ccc(F)c3[nH]ncc23)c2cc(OCC3(C(F)(F)F)CC3)c3ncccc3c2[nH]c1=O` [Compound C44, 3-Amino-4-(7-fluoro-1H-indazol-4-yl)-6-[[1-(trifluoromethyl)cyclopropyl]methoxy]-1H-1,7-one], 5.1 nM; as for `CC(C)(COc1cc2c(-c3ccc(F)c4[nH]ncc34)c(N)c(=O)[nH]c2c2cccnc12)C(F)(F)F` [Compound C59, 3-Amino-4-(7-fluoro-1H-indazol-4-yl)-6-(3,3,3-trifluoro-2,2-dimethylpropoxy)-1H-1,7-one], 5.3 nM.

On MYT1 protein, `Nc1c(-c2cc(Cl)cc3[nH]ncc23)c2cc(Cl)ccc2[nH]c1=O` [Compound A58, 3-Amino-6-chloro-4-(6-chloro-1H-indazol-4-yl)-1H-quinolin-2-one] yielded an IC50 of 360 nM.
